Measured values taken from patent US8853215B2, “Derivatives of N-acyl-N′-phenylpiperazine useful (inter alia) for the prophylaxis or treatment of diabetes” (Takeda Pharmaceutical Company Limited, priority 2009, dated 2014).

Key:
RBP4 [1] = molecular target: RBP4 (Rattus norvegicus (Rat), UniProt P04916); assay: Single administration test in Wistar fatty rats, plasma RBP4 by ELISA; format: in vivo; conditions: male Wistar fatty rats, 10 mg/kg oral single dose, mean±SD
Experimental: The action of the compounds of the present invention to lower plasma RBP4 level was evaluated using the animal model shown below.
Male Wistar fatty rats (fa/fa) were bred in Takeda Pharmaceutical Company Limited and maintained on normal diet (CE2, CLAE Japan, Inc.) and tap water. Animals were housed in a temperature-controlled room adjusted to a 12-hour light/12-hour dark cycle beginning at 7:00 and 19:00, respectively. All procedures were conducted according to the experimental animal care use committee of Takeda Pharmaceutical Company.
Male 13-43-week-old Wistar fatty rats were divided into groups randomly. Compounds were suspended in 0.5% (w/v) methylcellulose in water and given orally to Wistar fatty rats at a dose of 10 mg/10 mL/kg of body weight (3-5 rats per group). Blood samples were obtained from tail vein with sodium heparin as an anticoagulant at time 0 hr (just before the administration), 4 hr, 7 hr, and 24 hr after the administration, followed by plasma separation by centrifugation. Plasma RBP4 levels were measured by enzyme-linked immunosorbent assay described in the following section.
Plasma samples were analyzed in duplicate for RBP4 by an enzyme-linked immunosorbent assay. Mouse recombinant RBP4 (Takeda Pharmaceutical Company Limited) was used as standards, and the assay range was 0.313-20 ng/ml. Samples were diluted 10,000-fold with phosphate-buffered saline (PBS) (Sigma) containing 10% (w/v) BlockAce (Dainippon Sumitomo Pharma Co., Ltd). Rabbit anti-RBP4 polyclonal antibody (100 μL/well of 50 μg/mL, Hokudo Co, Ltd) was incubated in a 96-well plate (Nalge Nunc International K.K.) for overnight at 4° C. Subsequently, the plates were washed with PBS-T (Wako Pure Chemical Industries, Ltd.) and blocked with PBS containing 25% BlockAce for 1 hr at room temperature. After another washing with PBS-T, samples and standards were applied to the well, and the plates were incubated for 2 hr at room temperature. After a washing the wells, peroxidase-labeled (Dojindo Laboratories) anti-RBP4 (100 μL/well) was added to the wells, and then the plates were incubated for 1 hr at room temperature. After a final washing with PBS-T, substrate solution 3,3,5,5-tetramethylbenzidine (Sigma) was added to the wells, and the plates were placed in the dark for 5-20 min at room temperature. The reaction was stopped with 0.5 M sulphuric acid and the optical density was measured with a spectrophotometer at 450 nm. The changes in plasma RBP4 levels were expressed as % of initial/Control. All data are presented as mean±SD.

RBP4 [2] = molecular target: RBP4 (Mus musculus (Mouse), UniProt Q00724); assay: Single administration test in mice, plasma RBP4 by ELISA; format: in vivo; conditions: male C57BL/6J or ICR mice, 50 mg/kg oral single dose, mean±SD
Outline: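 Male 6–12-week-old C57BL/6J or ICR mice on CE2 diet received compound orally at 50 mg/10 mL/kg in 0.5% methylcellulose (3–5 per group). Plasma sampled at 0, 4, 7 and 24 hr post-dose; RBP4 measured by sandwich ELISA (OD 450 nm) against mouse recombinant RBP4 standards, expressed as % of initial/Control.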

[3] = 0 hr (just before the administration)

## CC(C)(C)c1ccccc1N1CCN(C(=O)C(=O)O)CC1 [Example 44, 2-[4-(2-tert-Butylphenyl)piperazin-1-yl]-2-oxoacetic acid]
RBP4 [1]; [3]
  RBP4 (% of initial/Control) 0 hr: 100.0 ± 13.8 % of initial/Control
RBP4 [1]; 4 hr after administration
  RBP4 (% of initial/Control) 4 hr: 59.6 ± 14.5 % of initial/Control
RBP4 [1]; 7 hr after administration
  RBP4 (% of initial/Control) 7 hr: 58.5 ± 5.6 % of initial/Control
RBP4 [1]; 24 hr after administration
  RBP4 (% of initial/Control) 24 hr: 106.0 ± 16.1 % of initial/Control
RBP4 [2]; [3]
  RBP4 (% of initial/Control) 0 hr: 100.0 ± 25.0 % of initial/Control
RBP4 [2]; 4 hr after administration
  RBP4 (% of initial/Control) 4 hr: 52.4 ± 2.8 % of initial/Control
RBP4 [2]; 7 hr after administration
  RBP4 (% of initial/Control) 7 hr: 50.2 ± 0.9 % of initial/Control
RBP4 [2]; 24 hr after administration
  RBP4 (% of initial/Control) 24 hr: 145.9 ± 19.6 % of initial/Control
